Values joined by “and” are separate entries in the source; they are usually repeats but may differ in a detail not shown here. Equal values may be shown once. Read-outs that look alike come from different tables or passages of the source. Marks after values point to notes of the source that are not given here.
What was measured:
serum cortisol = conditions: for cortisol AUEC (area under the time-effect curve): 0.5 mg/kg IV immediately prior to dehorning, mean
bulls and steers = test: Chute temperament score (Example 4); format: in vivo, cross-bred beef calves
Experimental: A generalized linear mixed model was fit to behavior scores recorded from 1 to 4 (1=calm, no movement; 2=restless shifting; 3=squirming, occasional shaking of the chute; 4=continuous vigorous movement and shaking of the chute, rearing, twisting, and struggling), assuming a categorical multinomial distribution of the response modeled with a cumulative logit link function. Behavioral outcomes were recorded at arrival, at castration and at revaccination 14 day after castration, and separate models were fit to each outcome. […] The random effect of Lot was also fit in the linear predictor as a blocking factor. In addition, pen nested within gonadal status/sex and treatment was incorporated in the linear predictor to recognize pen as the experimental unit for these factors. Model parameters were estimated using Laplace integral approximation to maximum likelihood. Estimated cumulative probabilities for behavioral scores on each outcome were provided.

[1] = test system: Bovine Respiratory Disease (BRD); test: Health outcomes (pulls, morbidity, BRD, removal, mortality) after castration or processing (Example 4); format: in vivo, cross-bred beef calves; conditions: for Study removal: 28 days; for First BRD relapse rate / First re-pull rate / BRD morbidity / Overall morbidity: estimated probability adjusted for pen; for Pulls (pen-adjusted first pull rate): estimated probability
Experimental: This study was designed as a stratified 2-arm parallel trial. […] Calves were maintained on open pens that consisted of a combination of concrete aprons and dirt pens. […] Upon arrival, calves were unloaded and sorted (d 0).
Processing and surgical castration was performed by the same operator to minimize variation in procedure. […] Briefly, the scrotum of each calf was cleaned with dilute chlorohexidine disinfectant and incised longitudinally with a Newberry knife (Jorgensen Lab, Loveland, Colo.). The testes and spermatic cords were exteriorized by blunt dissection and the cremaster was broken using manual traction. The spermatic cords were cut using a White's Double Crush emasculator (Jorgensen Lab, Loveland, Colo.) applied for approximately 30 seconds. Steers were subjected to the same handling procedures apart from knife cutting and castration.
Kansas State University Beef Stocker Unit personnel conducted twice daily evaluations of the cattle and were masked to drug treatment assignment throughout the study. Animals were deemed “sick” based on subjective criteria including general appearance and attitude, gauntness, and reluctance to move. If a sick calf was identified it was removed from the pen, brought to the processing unit, and its rectal temperature was obtained.
Animals not treated for BRD on initial evaluation that continued to display clear visual signs of BRD for 2 consecutive days were treated with an antimicrobial regardless of temperature. […] After treatments, cattle were returned to their home pens.
In addition to BRD, other health outcomes that were considered included lameness, scrotal infection, and coccidiosis. A diagnosis of lameness was based on signs of limping and reduced weight bearing on one or more limbs during standing and walking. A diagnosis of scrotal infection was based on signs of anorexia, fever, and the presence of swelling and purulent discharge from the castration site. A diagnosis of coccidiosis was based on signs of diarrhea, anorexia, and depression and the presence of coccidia oocysts on microscopic examination of the feces.
The removal of an animal from the study was permitted only for significant illness or injury that compromised the welfare of the animal. All calves that became severely injured or moribund were humanely euthanized. Animals that died or were euthanized during the study were transferred to the KSU Veterinary Diagnostic Laboratory for necropsy and disposal.
A generalized linear mixed model was fit to number of health events in a given pen using a binomial distribution whereby pen size defined the number of trials. Health outcomes included Pull, Morbidity and BRD. […] The random effect of Lot was also fit in the linear predictor as a blocking factor to account for variability in health events between lots. Model parameters were estimated using Laplace integral approximation to maximum likelihood. Inference was conducted after checking for absence of overdispersion based on the Pearson chi-square/df fit statistic.
The endpoint of interest was survival time, which was defined as the time to first pull, first treatment, first treatment for BRD, or the end of the study in days. In the data set, the variable Group represented the treatment category (MEL or CONT), the variable Time represented the disease-free survival time, and the a variable Status was used as a censoring indicator, with the value 1 indicating an event time and the value 0 indicating a censored time.

[2] = test system: calves with induced lameness; test: Visual lameness score (Sprecher scale) in induced lameness; format: in vivo, British x Continental beef calves; conditions: 5-point scale; p=0.03
Experimental: After acclimatization, lameness was induced as previously described (Kotschwar et al, 2009). More specifically, chemical synovitis/arthritis was induced with an injection of 20 mg amphotericin B (X-Gen Pharmaceuticals, Inc, Big Flats, N.Y.) into the left hind distal interphalangeal joint of each calf (Period 2). All calves were first restrained in a chute with a head gate as conducted through the acclimatization period, and the hind leg was restrained with ropes at the fetlock and stifle. After restraint, the appropriate hindlimb lateral digit pastern region was prepared with close clipping of hair (No. 40 clipper blade) and aseptic skin preparation using povidone iodine scrub and 70% isopropyl alcohol swabs, followed by injection of the amphotericin B. Amphotericin B is a polyene antibiotic that produces a controlled, mild to moderately severe synovitis/arthritis of short duration. […]
Animal activity was assessed continuously with pedometers.
Lameness scores were determined twice daily to document presence of lameness and to visually score severity of lameness. […] Intra-observer variability was assessed periodically by randomly selecting calves for repeated assessment to ensure consistency of scoring. […] Each lameness score was determined by watching the calf walk a minimum of 20 meters in a straight line, turn, and walk 20 meters back to the starting point.

[3] = bulls castrated 24 h after 1 mg/kg PO

In the case of `Cc1cnc(NC(=O)C2=C(O)c3ccccc3S(=O)(=O)N2C)s1` [meloxicam, 4-hydroxy-2-methyl-N-(5-methyl-2-thiazolyl)-2H-1,2-benzothiazine-3-carboxamide-1,1-dioxide], the “cortisol AUEC (area under the time-effect curve)” value (serum cortisol) was 122,961±20,441 minute · nmol/L, the “cortisol AUEC (area under the time-effect curve)” value (serum cortisol; listed as Meloxicam) was 122,961 ± 20,441 minute · nmol/L and the “difference in serum cortisol concentrations and heart rate between meloxicam- and placebo-treated groups” value (serum cortisol; after dehorning, 0.5 mg/kg IV) was “no significant difference”. For the same compound, the “temperament score, meloxicam vs placebo” value (bulls and steers; at castration (d 1), p=0.34) was “no difference between treatment groups”, the “temperament score, meloxicam vs placebo” value (bulls and steers; at revaccination on day 14, p=0.73) was “no difference” and the Mortality rate ([1]; MEL-CAST (bulls)) was 0 no. (%). The Pen death ([1]; MEL-CAST (bulls)) was 0 no. (%), the “Removal for neurological symptoms” value ([1]; MEL-CAST (bulls)) was 1 (1%) no. (%) and the Removal for lameness ([1]; MEL-CAST (bulls), listed as MEL) was 2 no. (%) and 2 (3%) no. (%). For the same compound, the Study removal ([1]; MEL-CAST (bulls, 71 enrolled)) was 4 (6%) no. (%), the peak overall morbidity ([1]; MEL-CAST group, peak on day 6) was 4% and the Mortality rate ([1]; MEL-STR (steers)) was 0 no. (%). For the same compound, the Pen death ([1]; MEL-STR (steers)) was 0 no. (%), the “Removal for chronic coccidiosis” value ([1]; MEL-STR (steers)) was 0 no. (%) and the “Removal for neurological symptoms” value ([1]; MEL-STR (steers)) was 0 no. (%). The Removal for lameness ([1]; MEL-STR (steers), listed as MEL) was 1 no. (%) and 1 (2%) no. (%), the Study removal ([1]; MEL-STR (steers, 58 enrolled)) was 1 (2%) no. (%) and the “peak overall morbidity rate” value ([1]; MEL-STR group, peak on day 12) was 7%. The “reduction in likelihood of developing BRD vs placebo-treated castrated bulls” value ([1]; bull calves receiving meloxicam prior to castration) was “about 50 % less likely”, the “First BRD relapse rate” value ([1]; bulls (castrated), 1 mg/kg PO) was 35.7% and the First re-pull rate ([1]; bulls (castrated), 1 mg/kg PO) was 52.6%. For the same compound, the “Pulls (pen-adjusted first pull rate)” value ([1]; bulls castrated 24 h after 1 mg/kg PO (MEL-CAST)) was 25.8^y %, the “Pulls (pen-adjusted first pull rate)” value ([1]; bulls castrated 24 h after 1 mg/kg PO (MEL-CAST), listed as MEL) was 25.83% and the BRD morbidity [1, 3] was 17.2^y %. For the same compound, the Overall morbidity [1, 3] was 21.1%, the “Pulls (pen-adjusted first pull rate)” value ([1]; steers (MEL-STR), 1 mg/kg PO) was 17.1% and the BRD morbidity ([1]; steers, 1 mg/kg PO) was 12.6%. The “First BRD relapse rate” value ([1]; steers, 1 mg/kg PO) was 50.0%, the First re-pull rate ([1]; steers, 1 mg/kg PO) was 69.9% and the Overall morbidity ([1]; steers, 1 mg/kg PO) was 14.4%. For the same compound, the “effect on incidence of BRD in steers” value ([1]; steers, not castrated, vs untreated control steers) was “did not appear to decrease the incidence of BRD” and the “visual lameness score vs PLBO” value [2] was “Significantly more PLBO calves had a visual lameness score of 3 and 4”.

Reference: patent US8791105B2, “Methods for alleviating chronic pain and improving performance of cattle undergoing dehorning or castration” (Kansas State University Research Foundation, priority 2010, dated 2014)
